Among the data in patent publication US20230078764A1 (Yumanity Therapeutics, Inc., priority 2019, published 2023) are IC50 values, retold here.

One experiment addresses T1, human SCD5 (Homo sapiens, UniProt Q86SK9).
T1 construct: expressed in transfected cells; host or cells: yeast strain with OLE1 deleted, plasmid-borne human SCD5 (selected in SD-Ura)
T1 sequence (Q86SK9 1-330): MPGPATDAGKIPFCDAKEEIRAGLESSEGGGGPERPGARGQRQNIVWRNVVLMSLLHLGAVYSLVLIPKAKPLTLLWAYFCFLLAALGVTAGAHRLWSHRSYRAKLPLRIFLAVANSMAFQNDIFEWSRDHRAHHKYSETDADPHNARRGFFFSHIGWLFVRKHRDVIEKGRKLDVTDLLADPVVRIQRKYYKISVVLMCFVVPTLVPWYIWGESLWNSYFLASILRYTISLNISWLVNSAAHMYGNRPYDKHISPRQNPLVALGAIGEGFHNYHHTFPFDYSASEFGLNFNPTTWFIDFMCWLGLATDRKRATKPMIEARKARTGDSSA
The experiment is described as follows: Growth inhibition of yeast strain expressing human SCD5 as sole desaturase (OLE1 deleted), OD600 readout. Type of experiment: cell-based. Conditions: yeast strain expressing human SCD5 as sole desaturase; growth (OD600) after 40 h at 30° C.; read-out: SCD5 IC50.

For the next experiment, the target named is T2, human SCD1 (Homo sapiens, UniProt O00767).
T2 construct: expressed in transfected cells; host or cells: yeast strain with OLE1 deleted, plasmid-borne human SCD1 (selected in SD-Ura)
T2 sequence (O00767 1-359): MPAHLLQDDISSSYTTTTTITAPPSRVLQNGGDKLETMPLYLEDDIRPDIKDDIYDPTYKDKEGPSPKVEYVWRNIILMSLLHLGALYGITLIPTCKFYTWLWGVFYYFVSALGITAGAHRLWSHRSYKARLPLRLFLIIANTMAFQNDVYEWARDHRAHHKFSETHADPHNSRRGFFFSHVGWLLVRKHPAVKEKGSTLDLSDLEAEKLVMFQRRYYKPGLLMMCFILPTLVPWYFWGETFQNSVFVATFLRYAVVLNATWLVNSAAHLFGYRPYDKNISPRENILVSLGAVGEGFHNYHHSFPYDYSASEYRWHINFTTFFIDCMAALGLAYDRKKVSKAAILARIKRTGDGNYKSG
Nature of the experiment: Growth inhibition of yeast strain expressing human SCD1 as sole desaturase (OLE1 deleted), OD600 readout. Type of experiment: cell-based. Conditions: yeast strain expressing human SCD1 as sole desaturase; growth (OD600) after 40 h at 30° C.; read-out: SCD1 IC50.

Usually IC50 stands for the point on the concentration scale where inhibition reaches its midpoint. On to `O=C(Nc1ccc(Cc2cccc(F)c2)cn1)c1ccc(F)c(Cl)n1` [Compound 417], for which the IC50 at human SCD5 and on human SCD1 was greater than 45 µM throughout.
Turning to `CN1N=C(C(=O)Nc2ncc(C(C)(O)c3cccc(F)c3)s2)CCC1=O` (stereo not shown) [Compound 419], the concentration for half-maximal inhibition (IC50) on human SCD5 and at human SCD1 was greater than 45 µM throughout.
For the molecule `O=C(Nc1ncc(Cc2cccc(F)c2)s1)C1=NN(CCO)C(=O)CC1` [Compound 420], the IC50 on human SCD5 and at human SCD1 was greater than 45 µM in each case.
Regarding `O=C(Nc1ccc(Cc2cccc(F)c2)cn1)c1ccc(=O)n(C2CCC2)n1` [Compound 421], the IC50 at human SCD5 and on human SCD1 was greater than 45 µM in each case.
On to `CN1N=C(C(=O)Nc2nc(Cc3ccc4ccccc4n3)cs2)CCC1=O` [Compound 422], for which the IC50 on human SCD5 and at human SCD1 was greater than 45 µM each time.
Regarding `CS(=O)(=O)c1ccc(C(=O)Nc2ccc(Cc3cccc(F)c3)cn2)cc1` [Compound 423], the IC50 on human SCD5 and on human SCD1 was greater than 45 µM throughout.
In the case of `COC(C)(c1cccc(F)c1)c1cnc(NC(=O)C2=NN(C)C(=O)CC2)s1` (stereo not shown) [Compound 424], the IC50 at human SCD5 and on human SCD1 was greater than 45 µM throughout.
Regarding `Cn1nc(C(=O)Nc2cncc(Cc3cccc(Cl)c3)c2)ccc1=O` [Compound 426], the 50% inhibitory concentration (IC50) on human SCD5 and on human SCD1 was greater than 45 µM in each case.
As to `Cn1cc(C(=O)Nc2ccc(OCc3cc(F)cc(C#N)c3)cn2)ccc1=O` [Compound 427], the IC50 at human SCD5 and at human SCD1 was greater than 45 µM in each case.
On to `COC(=O)c1ccc(C(=O)Nc2ccc(COc3ccc(F)c(Cl)c3)cn2)nc1` [Compound 428], for which the IC50 on human SCD5 and on human SCD1 was greater than 45 µM in each case.
Regarding `O=C(Nc1ccc(Cc2cccc(Cl)c2)cn1)c1ccn2cnnc2c1` [Compound 429], the IC50 at human SCD5 and at human SCD1 was greater than 45 µM each time.
For the molecule `Cn1nc(C(=O)Nc2nc(C(N)=O)c(Cc3cccc(F)c3)s2)ccc1=O` [Compound 430], the half-maximal inhibitory concentration (IC50) at human SCD5 and at human SCD1 was greater than 45 µM in each case.
Take `Cn1cc(C(=O)Nc2nnc(Cc3cc(F)cc(Cl)c3)s2)ccc1=O` [Compound 431]: the half-maximal inhibitory concentration (IC50) at human SCD5 is greater than 45 µM; on human SCD1, 1.07 µM.
As for `Cn1nc(C(=O)N2CCC(Oc3cccc(Cl)c3)CC2)ccc1=O` [Compound 432], the IC50 at human SCD5 and on human SCD1 was greater than 45 µM each time.
On to `CN1N=C(C(=O)Oc2ccc(NCc3cccc(F)c3)nc2)CCC1=O` [Compound 433], for which the IC50 on human SCD5 and at human SCD1 was greater than 45 µM throughout.
As for `Cn1nc(NC(=O)N[C@H]2CC[C@H](Cc3cccc(Cl)c3)CC2)ccc1=O` [Compound 434], the IC50 on human SCD5 and at human SCD1 was greater than 45 µM in each case.
With `Cc1ccc(Cc2ccc(NC(=O)C3=NN(C)C(=O)CC3)nc2)cn1` [Compound 435], the IC50 on human SCD5 and at human SCD1 was greater than 45 µM in each case.
In the case of `CN1N=C(C(=O)Nc2ccc(Cc3cccc(CO)c3)cn2)CCC1=O` [Compound 436], the IC50 on human SCD5 was greater than 45 µM; on human SCD1, 6.24 µM.
With `Cc1cncc(Cc2ccc(NC(=O)C3=NN(C)C(=O)CC3)nc2)c1` [Compound 437], the half-inhibitory concentration (IC50) at human SCD5 and on human SCD1 was greater than 45 µM throughout.
Take `CO[C@H]1C[C@@H](C(=O)Nc2ccc(Cc3cccc(F)c3)cn2)N(C)C1` [Compound 438]: the half-maximal inhibitory concentration (IC50) at human SCD5 and at human SCD1 was greater than 45 µM each time.
Consider `CN1N=C(C(=O)Nc2ccc(NCc3cc(F)cc(C#N)c3)nc2)CCC1=O` [Compound 439], for which the IC50 on human SCD5 and on human SCD1 was greater than 45 µM in each case.
In the case of `CN1N=C(C(=O)Nc2ccc(Cc3cccc(C=O)c3)cn2)CCC1=O` [Compound 440], the IC50 on human SCD5 and at human SCD1 was greater than 45 µM throughout.
Regarding `Cn1nc(C(=O)Nc2ccc(OCc3cc(F)cc(C#N)c3)cn2)ccc1=O` [Compound 441], the half-maximal inhibitory concentration (IC50) on human SCD5 and on human SCD1 was greater than 45 µM each time.
Turning to `CN1N=C(C(=O)Nc2ccc(Cc3cncc(F)c3)cn2)CCC1=O` [Compound 442], the IC50 at human SCD5 and on human SCD1 was greater than 45 µM each time.
As to `CN1N=C(C(=O)Nc2cnc(Cc3cccc(Cl)c3)nc2)CCC1=O` [Compound 443], the IC50 at human SCD5 and at human SCD1 was greater than 45 µM throughout.
With `C=CCCc1ccc(NC(=O)C2=NN(C)C(=O)CC2)nc1` [Compound 444], the half-inhibitory concentration (IC50) at human SCD5 and on human SCD1 was greater than 45 µM throughout.
`CN1N=C(C(=O)Nc2ccc(Cc3cccc(C(F)(F)F)n3)cn2)CCC1=O` [Compound 445]: the IC50 on human SCD5 and on human SCD1 was greater than 45 µM throughout.
As to `CO[C@H]1C[C@@H](C(=O)Nc2ccc(Cc3cccc(F)c3)cn2)N(C(=O)OC(C)(C)C)C1` [Compound 446], the IC50 at human SCD5 and on human SCD1 was greater than 45 µM throughout.
As for `CO[C@@H]1CN[C@H](C(=O)Nc2ccc(Cc3cccc(F)c3)cn2)C1` [Compound 447], the IC50 at human SCD5 and on human SCD1 was greater than 45 µM in each case.
In the case of `Cc1nc(C(=O)Nc2ccc(Cc3cccc(F)c3)cn2)ccc1F` [Compound 448], the half-inhibitory concentration (IC50) at human SCD5 and on human SCD1 was greater than 45 µM each time.
Consider `Cc1ccc(Cc2ccc(NC(=O)c3ccc(=O)n(C)c3)nc2)cn1` [Compound 449], for which the IC50 at human SCD5 and at human SCD1 was greater than 45 µM throughout.
Take `Cc1cncc(Cc2ccc(NC(=O)c3ccc(=O)n(C)c3)nc2)c1` [Compound 450]: the IC50 on human SCD5 and at human SCD1 was greater than 45 µM each time.
Take `O=C(O)c1ccc(C(=O)Nc2ccc(Cc3cccc(Cl)c3)cn2)nn1` [Compound 451]: the IC50 on human SCD5 is greater than 45 µM; at human SCD1, 1.4 µM.
The matching figures for `Cn1cc(C(=O)Nc2ccc(COc3ccc(F)cc3)cn2)ccc1=O` [Compound 452]: greater than 45 µM and greater than 45 µM.
With `Cn1cc(C(=O)Nc2ccc(Cc3cncc(F)c3)cn2)ccc1=O` [Compound 453], the IC50 was greater than 45 µM on human SCD5 and 0.18 µM on human SCD1.
The matching figures for `COC(=O)c1ccc(C(=O)Nc2ccc(Cc3cccc(Cl)c3)cn2)nn1` [Compound 454]: greater than 45 µM and 1.93 µM.
The matching figures for `COc1ccc(Cn2c(C(=O)Nc3ccc(Cc4cccc(F)c4)cn3)cc(=O)n2C)cc1` [Compound 455]: greater than 45 µM and greater than 45 µM.
For `COc1ccc(Cn2c(C(=O)Nc3ccc(Cc4cccc(Cl)c4)cn3)cc(=O)n2C)cc1` [Compound 456], the IC50 on human SCD5 and on human SCD1 was greater than 45 µM each time.
On to `Cn1cc(-c2ccc(NC(=O)Cc3cccc(F)c3)nc2)ccc1=O` [Compound 457], for which the IC50 on human SCD5 and on human SCD1 was greater than 45 µM in each case.
Regarding `CN1C(=O)OC[C@H]1C(=O)Nc1ccc(Cc2cccc(F)c2)cn1` [Compound 458], the IC50 at human SCD5 and on human SCD1 was greater than 45 µM throughout.
Consider `Cn1c(C(=O)Nc2ccc(Cc3cccc(F)c3)cn2)cc(=O)n1C` [Compound 459], for which the IC50 at human SCD5 and on human SCD1 was greater than 45 µM in each case.
With `Cn1c(C(=O)Nc2ccc(Cc3cccc(Cl)c3)cn2)cc(=O)n1C` [Compound 460], the 50% inhibitory concentration (IC50) at human SCD5 and at human SCD1 was greater than 45 µM each time.
With `Cn1cc(C(=O)Nc2nnc(Cc3cccc(F)c3)s2)ccc1=O` [Compound 461], the IC50 at human SCD5 and on human SCD1 was greater than 45 µM each time.
Consider `Cn1cc(C(=O)Nc2nnc(Cc3cccc(Cl)c3)s2)ccc1=O` [Compound 462], for which the half-maximal inhibitory concentration (IC50) at human SCD5 and on human SCD1 was greater than 45 µM each time.
